Key:
[1] = system: 35S-ABF and wild type plants; test: Effect of ACC and IAA on growth of 35S-ABF versus wild type plants; set-up: species or system Arabidopsis thaliana; conditions: in vivo
Text: According to the studies, ABA-mediated inhibition of germination is negatively regulated by ethylene, whereas ethylene signaling components are required for the ABA inhibition of root growth (Beaudoin et al., 2000; Ghassemian et al., 2000). […] When exposed to progressive drought, new lateral roots take a short and tuberized form. The process, known as ‘drought rhizogenesis’, is impaired not only in the ABA deficient aba-1 and ABA-insensitive abi1-1 mutants but also in the auxin resistant axr1-3 mutant. To test whether the overexpression of ABF3 or ABF4 affected ethylene or auxin sensitivity, we compared the effects of the ethylene precursor 1-aminocyclopropane-1-carboxylic acid (ACC) and indole-3-acetic acid (IAA) on the growth of 35S-ABF and wild type plants. […] However, leaves of 35S-ABF4 plants have a tendency to have epinastic curvature when grown on plates (FIG. 4A), which is generally attributed to ethylene action under stress conditions (Jackson, 1997). […] Thus, the result implies that auxin signaling pathway(s) might have been perturbed in 35S-ABF4 plants.

[2] = system: 35S-ABF3 transgenic plants (line A319); test: ABA dose-response of germination; type: in vivo, Arabidopsis thaliana; conditions: 0.5 μM ABA, fully emerged radicles counted after 3 days
Protocol: (§1) FIG. 2. ABA Sensitivity of 35S-ABF3 and 35S-ABF4 Plants. (A) Growth of transgenic plants on medium containing 0.5 μM ABA. Seeds were germinated and grown for 12 days. (B) Growth of transgenic plants on medium containing 0.25 μM ABA. Seeds were germinated on the medium for 3 days and representative plants are shown. (C) ABA dose-response of germination. Seeds, 6 months old after harvest and pre-chilled at 4° C. for 4 days, were germinated on media containing various concentrations of ABA, and seedlings with fully emerged radicles were counted after 3 days. Experiments were done in triplicates (n=50 each), and the bars show standard errors. (D) ABA dose-response of root growth. Seeds were germinated for 4 days on ABA-free medium and the seedlings (n=6) were transferred to media containing various concentrations of ABA. Root elongation was measured 5 days after the transfer. The experiments were performed more than four times, sometimes using different transgenic lines, and the results were consistent. The small bars represent standard errors. Transgenic lines A319 (ABF3) and A405 (ABF4) were used.
(§2) To see the stage-specificity of ABA response, ABA dose-response was examined during and after germination. […] Likewise, root growth of the 35S-ABF transgenic lines was hypersensitive to ABA (FIG. 2D). At 0.5 μM ABA, wild type root growth was 84% of its control rate, whereas those of 35S-ABF4 and 35S-ABF3 plants were 35% and 51% of their control rates, respectively. At 1 μM ABA, root growth of the 35S-ABF4 plants reduced to 6% and the 35S-ABF3 plants to 37%. […] Wild type plants grew at 62% of the control rate at the same ABA concentration.

[3] = system: 35S-ABF4 transgenic plants (line A405); test: ABA dose-response of germination; type: in vivo, Arabidopsis thaliana; conditions: 0.5 μM ABA, fully emerged radicles counted after 3 days
Protocol: as §1, §2

[4] = system: wild type plants (Ler); test: ABA dose-response of germination; type: in vivo, Arabidopsis thaliana; conditions: 0.5 μM ABA, fully emerged radicles counted after 3 days
Protocol: as §1, §2

[5] = system: 35S-ABF3 transgenic plants (line A319); test: ABA dose-response of root growth; type: in vivo; conditions: Arabidopsis thaliana, 120 h, root elongation 5 days after transfer, read-out: root growth, % of control rate
Protocol: as §1, §2

[6] = system: 35S-ABF4 transgenic plants (line A405); test: ABA dose-response of root growth; type: in vivo; conditions: Arabidopsis thaliana, 120 h, root elongation 5 days after transfer, read-out: root growth, % of control rate
Protocol: as §1, §2

[7] = system: 35S-ABF transgenic plants; test: ABA dose-response of root growth; type: in vivo, Arabidopsis thaliana; conditions: ABA concentration above 5 μM
Protocol: as §1, §2

[8] = system: wild type plants (Ler); test: ABA dose-response of root growth; type: in vivo, Arabidopsis thaliana
Protocol: as §1, §2

[9] = system: 35S-ABF plants; test: Germination and growth on ABA-containing medium; type: in vivo, Arabidopsis thaliana; conditions: ABA 0.5 μM or above
Protocol: as §1
(§3) To test whether ABF3 or ABF4 overexpression affected ABA sensitivity, 35S-ABF3 and 35S-ABF4 transgenic plants were germinated and grown on media containing various concentrations of ABA. […]

[10] = system: wild type plants; test: Germination and growth on ABA-containing medium; type: in vivo, Arabidopsis thaliana; conditions: ABA 0.5 μM or above
Protocol: as §1, §3

[11] = system: 35S-ABF plants; test: Salt effect on germination and newly germinated seedling growth; type: in vivo, Arabidopsis thaliana
Protocol: (§4) FIG. 3. […] (A) Salt effect on germination. Seeds of Ler, aba1-1, abi1-1, abi2-1, 35S-ABF3 (line A319) and 35S-ABF4 (line A405) were plated after 4 days of cold treatment on media containing 50, 100, or 150 mM NaCl, and germination (fully open cotyledons) was scored after 4 days. Experiments were done in triplicates (n=50 each), and standard errors are smaller than the symbols. (B) Salt effect on newly germinated seedling growth. Seeds of the same transgenic lines were germinated for 4 days on media containing 100 mM of NaCl, KCl or mannitol, and representative seedlings are shown. (C) Glucose response of 35S-ABF transgenic plants. Seeds were germinated and grown for 14 days on the regular growth medium or the same medium supplemented with 3% glucose or mannitol at vertical position. A319, A333, A405, and A406 indicate transgenic lines.
(§5) High concentrations of salts inhibit the germination of Arabidopsis (Werner and Finkelstein, 1995; Leon-Kloosterziel et al., 1996; Quesada et al., 2000; Zhu, 2000). […] To test this, 35S-ABF transgenic plants were germinated on media containing various concentrations of NaCl.
(§6) Plants were grown at 22° C. under long day condition (16 hr light/8 hr dark cycle) aseptically or on soil. […]

[12] = system: wild type plants; conditions: NaCl below 100 mM; wild type (also aba1, abi1, abi2 mutants)
Protocol: as §4, §5, §6

[13] = system: 35S-ABF transgenic lines; test: Glucose response of seedlings; type: in vivo, Arabidopsis thaliana; conditions: 3% mannitol; both wild type and 35S-ABF transgenic plants
Protocol: as §4
Plants were grown at 22° C. under long day condition (16 hr light/8 hr dark cycle) aseptically or on soil. For soil growth, seeds were sown on 1:1:1 mixture of vermiculite, perlite and peat moss irrigated with 0.1% Hyponex, placed at 4° C. for 4 days in the dark to break residual dormancy, and transferred to normal growth conditions. Unless otherwise stated, the plants were watered once a week. […]

With `NC1(C(=O)O)CC1` [ACC, 1-aminocyclopropane-1-carboxylic acid] the “difference in growth response between 35S-ABF and wild type plants” value [1] was “did not see any differences”.
For `CC1=CC(=O)CC(C)(C)[C@@]1(O)/C=C/C(C)=C\C(=O)O` [ABA, abscisic acid], the germination efficiency [2] was 8%, the germination efficiency [3] was 28% and the germination [4] was 80%. It also gave an activity at 0.5 µM ([5]; 0.5 μM ABA) of 51%, an activity at 1 µM ([5]; 1 μM ABA) of 37% and an activity at 0.5 µM ([6]; 0.5 μM ABA) of 35%. For the same molecule, the activity at 1 µM ([6]; 1 μM ABA) was 6%, the root growth [7] was “almost completely arrested” and the root growth ([8]; ABA concentration above 5 μM) was “still continued to grow”. For the same molecule, the activity at 0.5 µM ([8]; Arabidopsis thaliana, 120 h, 0.5 μM ABA, root elongation 5 days after transfer, read-out: root growth, % of control rate) was 84%, the activity at 1 µM ([8]; Arabidopsis thaliana, 120 h, 1 μM ABA, root elongation 5 days after transfer, read-out: root growth, % of control rate) was 62% and the “growth after radicle emergence” value [9] was “completely arrested”. For the same molecule, the “growth after radicle emergence” value [10] was “continued to grow and develop”.
`O=C(O)Cc1c[nH]c2ccccc12` [IAA, indole-3-acetic acid] was tested, and the “difference in growth response between 35S-ABF and wild type plants” value [1] was “did not see any differences”.
With `[Cl-].[Na+]` [NaCl] the germination and growth ([11]; 100 mM NaCl) was “significantly affected” and the germination [12] was “not affected”.
In the case of `OC[C@@H](O)[C@@H](O)[C@H](O)[C@H](O)CO` [mannitol], the “response of germination/seedling growth” value ([11]; mannitol, same or twice the concentration (100 mM)) is reported as “normal” and the growth inhibition [13] is reported as “significantly but similarly”.

From patent US20050244971A1, “Transgenic plants with enhanced stress tolerance” (KOREA KUMHO PETROCHEMICAL CO., LTD., priority 2002, published 2005)
